Results taken from patent US4628083A, “2-hydroxy-5-(arylazo)-benzene alkanoic acids” (Pharmacia AB, priority 1985, dated 1986).
“And” between values parts separate entries of the source, which are not always exact repeats. Equal values may be shown once.

Legend:
Format in all cases: biochemical
[1] = target: T1, prostaglandin-15-dehydrogenase (Rattus norvegicus, UniProt O08699); experiment: Inhibition of prostaglandin F2α inactivation in cell-free rat organ preparations; details: for inhibition at 50 µM: 50 μM (A 19,9 μg/ml; C 12,8 μg/ml); for inhibition at 2 µM: 2 μM (0,82 μg/ml)
T1 construct: cellfree preparations of different organs (containing prostaglandin-15-dehydrogenase); from tissue
T1 sequence (O08699 1-266): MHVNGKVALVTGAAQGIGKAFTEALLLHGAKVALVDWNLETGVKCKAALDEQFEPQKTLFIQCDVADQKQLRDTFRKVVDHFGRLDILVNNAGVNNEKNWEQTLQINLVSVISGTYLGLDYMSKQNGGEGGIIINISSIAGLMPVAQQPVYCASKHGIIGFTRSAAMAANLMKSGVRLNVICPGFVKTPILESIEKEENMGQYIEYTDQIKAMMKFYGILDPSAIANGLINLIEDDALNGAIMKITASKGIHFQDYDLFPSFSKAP
Method: (§1) Radioactive prostaglandin F2α was incubated with cellfree preparations of different organs (containing prostaglandin-15-dehydrogenase) according to Hoult and Moore, British Journal of Pharmacology, Vol. 61 (1977), p. 615. After a suitable time the prostaglandins were extracted and separated by chromatography. Then the amount of remaining prostaglandin F2α was compared with the amounts of metabolites. The inhibiting effect was obtained by the addition of the compounds according to the invention during the incubation and comparison with control experiments without such addition. The results may be represented either as a concentration giving 50% inhibition of the prostaglandin inactivation, or as an inhibition in percent at a certain concentration of the studied compound. In the following table the results for some compounds according to the invention are shown compared to the known drug sulfasalazine.

[2] = target: T2, prostaglandin-15-dehydrogenase (Homo sapiens, UniProt P15428); experiment: Inhibition of prostaglandin F2α inactivation in cell-free human placenta preparation; details: for IC50: Inhibition 50 %, read-out: concentration giving 50% inhibition of the prostaglandin inactivation (converted)
T2 construct: cellfree preparations of different organs (containing prostaglandin-15-dehydrogenase); from tissue; host or cells: human placenta
T2 sequence (P15428 1-266): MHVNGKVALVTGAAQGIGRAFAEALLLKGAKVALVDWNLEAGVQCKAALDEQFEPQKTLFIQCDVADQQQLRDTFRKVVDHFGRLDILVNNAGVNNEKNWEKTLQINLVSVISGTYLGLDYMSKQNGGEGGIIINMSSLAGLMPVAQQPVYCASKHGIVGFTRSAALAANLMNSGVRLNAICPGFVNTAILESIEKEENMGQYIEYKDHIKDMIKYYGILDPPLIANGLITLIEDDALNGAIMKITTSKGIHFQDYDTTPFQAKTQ
Method: as §1

[3] = target: T3, prostaglandin-15-dehydrogenase (Cavia porcellus, UniProt P70684); experiment: Inhibition of prostaglandin F2α inactivation in cell-free guinea pig organ preparations; details: for inhibition at 2 µM: 2 μM (0,82 μg/ml); for inhibition at 50 µM: 50 μM (B 20,6 μg/ml; C 12,8 μg/ml)
T3 construct: cellfree preparations of different organs (containing prostaglandin-15-dehydrogenase); from tissue
T3 sequence (P70684 1-265): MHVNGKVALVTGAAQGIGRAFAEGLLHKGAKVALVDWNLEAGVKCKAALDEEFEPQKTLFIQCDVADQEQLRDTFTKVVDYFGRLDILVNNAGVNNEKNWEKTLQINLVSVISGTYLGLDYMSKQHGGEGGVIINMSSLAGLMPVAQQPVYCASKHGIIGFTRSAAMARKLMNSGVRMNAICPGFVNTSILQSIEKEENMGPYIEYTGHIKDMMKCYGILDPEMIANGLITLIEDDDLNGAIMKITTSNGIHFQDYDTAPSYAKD
Method: as §1

[4] = relative to compound A (sulfasalazine)

Compound	inhibition at 50 µM ([1]; Rat colon) [%]	IC50 ([2]; Human placenta)	inhibition at 2 µM ([1]; Rat colon) [%]	inhibition at 2 µM ([1]; Rat kidney) [%]	inhibition at 2 µM ([1]; Rat lung) [%]	inhibition at 2 µM ([1]; Rat stomach) [%]	inhibition at 50 µM ([2]; Human placenta, 50 μM (20,6 μg/ml)) [%]	times as active as the known compound A [2, 4] [times]	inhibition at 2 µM ([3]; Guinea pig colon) [%]	inhibition at 2 µM ([3]; Guinea pig duodenum) [%]	inhibition at 2 µM ([3]; Guinea pig kidney) [%]	inhibition at 50 µM ([3]; Guinea pig kidney) [%]	activity compared with compound A [1, 4]
O=C(O)c1cc(/N=N/c2ccc(S(=O)(=O)Nc3ccccn3)cc2)ccc1O [A, sulfasalazine, reference compound]	47.8	95 µM and 95.4 µM	–	–	–	–	–	–	–	–	–	–	–
O=C(O)Cc1cc(N=Nc2ccc(S(=O)(=O)Nc3ccccn3)cc2)ccc1O [B, 2-hydroxy-5-[4-[[(2-pyridinyl)amino]sulfonyl]phenylazo]benzeneacetic acid]	–	1.9 µM and 1.89 µM	53.3	94.1	85.2	67.2	87.5	50	58.7	68.3	53.8	65.9	–
O=C(O)Cc1cc(N=Nc2ccccc2)ccc1O [C, 2-hydroxy-5-phenylazo-benzeneacetic acid]	71.3	–	–	–	–	–	–	–	–	–	–	45.4	significantly more active than compound A
